Experiment [1] relates to C. albicans. To be noted: reported value; cited from earlier work.
The test system of experiment [2] is C. albicans. Put plainly: Antifungal activity of the formula, disk diffusion method. The format is cell-based. The settings on record: Candida albicans, 48 h, read-out: diameter inhibition zones. The method, then:
The antifungal activity of the bacillus (10^8/ml) in the formula was determined using the disk diffusion method and was compared to that of empty formulation (without bacillus) and of ketoconazole 2% w/v in ethylene glycol (FIG. 11). A lawn of C. albicans (100 μl of 10^7 cells/ml) was spread on yeast extract-peptone-dextrose (YPD) agar petri dishes and tested solutions (10 μl ) were loaded on paper filter disks (6 mm in diameter) placed at the center of each dish and incubated at 37° C. for 48 h.
A general note: In agar diffusion tests the substance spreads into inoculated agar from a disc or well.

Starred links: 1 amine or outer side, 2 acyl side, 3 side chain; linkers in the order of their positions; H or OH if unused. Positions of bridges follow the written chain, without caps; N, C: chain ends. Non-standard residues stand in square brackets, D forms with d. Residues, ends and D or L forms follow the SMILES beside them. X1 = CC(C)CCCCCCCCC[C@H](CC(=O)[*:1])O[*:2]

For `CC(C)CCCCCCCCC[C@@H]1CC(=O)N[C@@H](CCC(=O)O)C(=O)N[C@@H](CC(C)C)C(=O)N[C@H](CC(C)C)C(=O)N[C@@H](C(C)C)C(=O)N[C@@H](CC(=O)O)C(=O)N[C@H](CC(C)C)C(=O)N[C@@H](CC(C)C)C(=O)O1` [Surfactin C15] (EL[dL]VD[dL]L; linker N-C via X1), the “synergistic anti-fungal MIC” value in the experiment on C. albicans [1] is 6.25 µg/mL.

For the molecule `CC(=O)N1CCN(c2ccc(OCC3COC(Cn4ccnc4)(c4ccc(Cl)cc4Cl)O3)cc2)CC1` (centres unmarked) [ketoconazole], the zone of inhibition at 2 % strength in the experiment on C. albicans [2] stood at 14 mm.
